{"source": "patent US20240108623A1", "about": "“METHODS OF TREATING CANCER WITH POZIOTINIB” (BOARD OF REGENTS, THE UNIVERSITY OF TEXAS SYSTEM, priority 2021, published 2024)", "assay_in_all_cases": "Ba/F3 cell drug screening, Cell Titer Glo", "type_in_all_cases": "cell-based", "key": {"[1]": {"biological_target": "T1, EGFR L858R/L718V (Homo sapiens, UniProt P00533, L718V/L858R)", "T1 construct": "host or cells: Ba/F3 (retroviral transduction, pBabe-Puro based vectors)", "details": "Ba/F3 cells expressing EGFR L858R/L718V; 72 hours", "outline": "(§1)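 Seven-dose TKI treatment, 72 h, of sorted EGFR-mutant Ba/F3 cells in EGF-supplemented medium; CellTiter-Glo read-out normalized to vehicle. Curve-fit IC50 from technical triplicates across duplicate or triplicate biological repeats.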"}, "[2]": {"biological_target": "T2, EGFR E709K L858R (Homo sapiens, UniProt P00533, E709K/L858R)", "T2 construct": "expressed in transfected cells; host or cells: Ba/F3 (retroviral, pBabe-Puro based vector)", "details": "Ba/F3 cells expressing EGFR E709K L858R; 72 hours", "outline": "as §1"}, "[3]": {"biological_target": "T3, EGFR Ex19del L718Q (Homo sapiens, UniProt P00533, DEL746-750/L718Q)", "T3 construct": "expressed in transfected cells; host or cells: Ba/F3 (murine pro-B cells), retroviral transduction with pBabe-Puro based vectors", "details": "Ba/F3 cells expressing EGFR Ex19del L718Q; 72 hours", "outline": "as §1"}, "[4]": {"biological_target": "T4, EGFR H773insNPH (Homo sapiens, UniProt P00533, INS773NPH)", "T4 construct": "expressed in transfected cells; host or cells: Ba/F3 (retroviral, pBabe-Puro based vector)", "details": "Ba/F3 cells expressing EGFR H773insNPH; 72 hours", "outline": "as §1"}, "[5]": {"biological_target": "T5, EGFR S768dupSVD (Homo sapiens, UniProt P00533, DUP768-770)", "T5 construct": "expressed in transfected cells; host or cells: Ba/F3 (retroviral, pBabe-Puro based vector)", "details": "Ba/F3 cells expressing EGFR S768dupSVD; 72 hours", "outline": "as §1"}, "[6]": {"biological_target": "T6, EGFR L833F (Homo sapiens, UniProt P00533, L833F)", "T6 construct": "expressed in transfected cells; host or cells: Ba/F3 (retroviral, pBabe-Puro based vector)", "details": "Ba/F3 cells expressing EGFR L833F; 72 hours", "outline": "as §1"}, "[7]": {"biological_target": "T7, EGFR L861Q (Homo sapiens, UniProt P00533, L861Q)", "T7 construct": "expressed in transfected cells; host or cells: Ba/F3 (retroviral, pBabe-Puro based vector)", "details": "Ba/F3 cells expressing EGFR L861Q; 72 hours", "outline": "as §1"}, "[8]": {"biological_target": "T8, EGFR K754E (Homo sapiens, UniProt P00533, K754E)", "T8 construct": "expressed in transfected cells; host or cells: Ba/F3 (retroviral, pBabe-Puro based vector)", "details": "Ba/F3 cells expressing EGFR K754E; 72 hours", "outline": "as §1"}, "[9]": {"biological_target": "T9, EGFR A763insLQEA (Homo sapiens, UniProt P00533, INS763LQEA)", "T9 construct": "expressed in transfected cells; host or cells: Ba/F3 (retroviral, pBabe-Puro based vector)", "details": "Ba/F3 cells expressing EGFR A763insLQEA; 72 hours", "outline": "as §1"}, "[10]": {"biological_target": "T10, EGFR G719A L861Q (Homo sapiens, UniProt P00533, G719A/L861Q)", "T10 construct": "expressed in transfected cells; host or cells: Ba/F3 (retroviral transduction, pBabe-Puro based vectors)", "details": "Ba/F3 cells expressing EGFR G719A L861Q; 72 hours", "outline": "as §1"}, "[11]": {"biological_target": "T11, EGFR L718V (Homo sapiens, UniProt P00533, L718V)", "T11 construct": "expressed in transfected cells; host or cells: Ba/F3 (retroviral transduction, pBabe-Puro based vectors)", "details": "Ba/F3 cells expressing EGFR L718V; 72 hours", "outline": "as §1"}, "[12]": {"biological_target": "T12, EGFR S768I V774M (Homo sapiens, UniProt P00533, S768I/V774M)", "T12 construct": "host or cells: Ba/F3 (retroviral transduction, pBabe-Puro based vectors)", "details": "Ba/F3 cells expressing EGFR S768I V774M; 72 hours", "outline": "as §1"}, "[13]": {"biological_target": "T13, EGFR E709_T710del insD (Homo sapiens, UniProt P00533, DEL709-709/T710D)", "T13 construct": "expressed in transfected cells; host or cells: Ba/F3 (retroviral transduction, pBabe-Puro based vectors)", "details": "Ba/F3 cells expressing EGFR E709_T710del insD; 72 hours", "outline": "as §1"}, "[14]": {"biological_target": "T14, EGFR L858R/L792H (Homo sapiens, UniProt P00533, L792H/L858R)", "T14 construct": "expressed in transfected cells; host or cells: Ba/F3 (retroviral transduction, pBabe-Puro based vectors)", "details": "Ba/F3 cells expressing EGFR L858R/L792H; 72 hours", "outline": "as §1"}, "[15]": {"biological_target": "T15, EGFR G719S (Homo sapiens, UniProt P00533, G719S)", "T15 construct": "expressed in transfected cells; host or cells: Ba/F3 (retroviral transduction, pBabe-Puro based vectors)", "details": "Ba/F3 cells expressing EGFR G719S; 72 hours", "outline": "as §1"}, "[16]": {"biological_target": "T16, EGFR E709K (Homo sapiens, UniProt P00533, E709K)", "T16 construct": "expressed in transfected cells; host or cells: Ba/F3 (retroviral transduction, pBabe-Puro based vectors)", "details": "Ba/F3 cells expressing EGFR E709K; 72 hours", "outline": "as §1"}, "[17]": {"biological_target": "T17, EGFR N771dupN (Homo sapiens, UniProt P00533, DUP771-771)", "T17 construct": "expressed in transfected cells; host or cells: Ba/F3 (retroviral, pBabe-Puro based vector)", "details": "Ba/F3 cells expressing EGFR N771dupN; 72 hours", "outline": "as §1"}}, "data": [{"smiles": "C=CC(=O)N1CCC(Oc2cc3c(Nc4ccc(Cl)c(Cl)c4F)ncnc3cc2OC)CC1", "note": "[Poziotinib]", "values": [{"measurement": "Response of Cells Comprising PACC EGFR Mutations to Second-Generation TKIs", "setting": "[1]", "value": 0.01621}, {"measurement": "Response of Cells Comprising Classical-Like EGFR Mutations to Second-Generation TKIs", "setting": "[2]", "value": 0.005342}, {"measurement": "Response of Cells Comprising PACC EGFR Mutations to Second-Generation TKIs", "setting": "[3]", "value": 0.107}, {"measurement": "Response of Cells Comprising Ex20ins EGFR Mutations to Poziotinib", "setting": "[4]", "value": 0.3855}, {"measurement": "Response of Cells Comprising Ex20ins EGFR Mutations to Poziotinib", "setting": "[5]", "value": 0.09327}, {"measurement": "Response of Cells Comprising Classical-Like EGFR Mutations to Second-Generation TKIs", "setting": "[6]", "value": 0.01839}, {"measurement": "Response of Cells Comprising Classical-Like EGFR Mutations to Second-Generation TKIs", "setting": "[7]", "value": 0.02499}, {"measurement": "Response of Cells Comprising Classical-Like EGFR Mutations to Second-Generation TKIs", "setting": "[8]", "value": 0.009588}, {"measurement": "Response of Cells Comprising Classical-Like EGFR Mutations to Second-Generation TKIs", "setting": "[9]", "value": 0.01607}, {"measurement": "Response of Cells Comprising PACC EGFR Mutations to Second-Generation TKIs", "setting": "[10]", "value": 0.09492}, {"measurement": "Response of Cells Comprising PACC EGFR Mutations to Second-Generation TKIs", "setting": "[11]", "value": 0.2403}, {"measurement": "Response of Cells Comprising PACC EGFR Mutations to Second-Generation TKIs", "setting": "[12]", "value": 0.1181}, {"measurement": "Response of Cells Comprising PACC EGFR Mutations to Second-Generation TKIs", "setting": "[13]", "value": 0.06231}, {"measurement": "Response of Cells Comprising PACC EGFR Mutations to Second-Generation TKIs", "setting": "[14]", "value": 0.07789}, {"measurement": "Response of Cells Comprising PACC EGFR Mutations to Second-Generation TKIs", "setting": "[15]", "value": 0.04616}, {"measurement": "Response of Cells Comprising PACC EGFR Mutations to Second-Generation TKIs", "setting": "[16]", "value": 0.0379}, {"measurement": "Response of Cells Comprising Ex20ins EGFR Mutations to Poziotinib", "setting": "[17]", "value": 0.04003}]}]}
